Where a name gives a salt, the structure may show the parent alone.
Tests used:
JAK3 = target: T1, JAK3 (Homo sapiens, UniProt P52333); assay: JAK3 Inhibition Assay; format: biochemical; details: 1 nM JAK3, 1 μM poly(Glu)4Tyr, 5 μM ATP, 25° C.; read-out: enzyme inhibition data (Ki) JAK3
T1 sequence (P52333 1-1124): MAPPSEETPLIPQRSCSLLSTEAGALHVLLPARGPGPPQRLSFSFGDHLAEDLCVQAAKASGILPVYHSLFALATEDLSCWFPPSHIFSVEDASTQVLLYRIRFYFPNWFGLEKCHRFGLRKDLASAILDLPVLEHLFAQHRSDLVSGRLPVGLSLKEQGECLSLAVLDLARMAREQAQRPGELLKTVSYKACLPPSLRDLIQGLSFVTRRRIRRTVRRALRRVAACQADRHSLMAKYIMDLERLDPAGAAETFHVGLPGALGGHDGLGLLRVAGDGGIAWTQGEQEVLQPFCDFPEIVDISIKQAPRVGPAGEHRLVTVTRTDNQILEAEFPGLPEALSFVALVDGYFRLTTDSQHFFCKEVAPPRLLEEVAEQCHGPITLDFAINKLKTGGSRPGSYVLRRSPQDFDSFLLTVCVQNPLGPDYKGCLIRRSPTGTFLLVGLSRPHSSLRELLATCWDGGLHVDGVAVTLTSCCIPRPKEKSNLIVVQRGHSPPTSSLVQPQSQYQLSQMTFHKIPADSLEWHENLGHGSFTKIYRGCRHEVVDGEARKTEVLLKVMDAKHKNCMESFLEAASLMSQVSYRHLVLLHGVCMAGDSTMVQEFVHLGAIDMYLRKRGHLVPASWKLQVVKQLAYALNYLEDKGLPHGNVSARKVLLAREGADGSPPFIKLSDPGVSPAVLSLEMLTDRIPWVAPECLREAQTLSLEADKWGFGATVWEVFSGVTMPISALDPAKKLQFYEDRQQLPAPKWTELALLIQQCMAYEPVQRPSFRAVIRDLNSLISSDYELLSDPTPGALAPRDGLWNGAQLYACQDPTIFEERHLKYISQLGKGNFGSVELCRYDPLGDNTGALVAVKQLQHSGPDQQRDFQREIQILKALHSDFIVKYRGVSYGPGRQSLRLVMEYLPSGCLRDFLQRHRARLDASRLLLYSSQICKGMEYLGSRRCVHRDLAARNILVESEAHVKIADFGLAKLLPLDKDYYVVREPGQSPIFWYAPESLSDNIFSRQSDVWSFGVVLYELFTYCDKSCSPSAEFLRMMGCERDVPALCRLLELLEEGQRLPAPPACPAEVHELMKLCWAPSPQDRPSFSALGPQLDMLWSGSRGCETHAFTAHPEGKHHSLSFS
Description: (§1) Compounds were screened for their ability to inhibit JAK3 using the assay shown below. Reactions were carried out in a kinase buffer containing 100 mM HEPES (pH 7.4), 1 mM DTT, 10 mM MgCl2, 25 mM NaCl, and 0.01% BSA. Substrate concentrations in the assay were 5 μM ATP (200 uCi/μmole ATP) and 1 μM poly(Glu)4Tyr. Reactions were carried out 25° C. and 1 nM JAK3.
(§2) To each well of a 96 well polycarbonate plate was added 1.5 μl of a candidate JAK3 inhibitor along with 50 μl of kinase buffer containing 2 μM poly(Glu)4Tyr and 10 μM ATP. This was then mixed and 50 μl of kinase buffer containing 2 nM JAK3 enzyme was added to start the reaction. After 20 minutes at room temperature (25° C.), the reaction was stopped with 50 μl of 20% trichloroacetic acid (TCA) that also contained 0.4 mM ATP. The entire contents of each well were then transferred to a 96 well glass fiber filter plate using a TomTek Cell Harvester. After washing, 60 μl of scintillation fluid was added and ^33P incorporation detected on a Perkin Elmer TopCount.

JAK2 = JAK2 (Homo sapiens, UniProt O60674); assay: JAK2 Inhibition Assay; format: biochemical; details: JAK-2 enzyme, 15 μM poly(Glu)4Tyr, 12 μM ATP
Chain of JAK2 (O60674 whole entry): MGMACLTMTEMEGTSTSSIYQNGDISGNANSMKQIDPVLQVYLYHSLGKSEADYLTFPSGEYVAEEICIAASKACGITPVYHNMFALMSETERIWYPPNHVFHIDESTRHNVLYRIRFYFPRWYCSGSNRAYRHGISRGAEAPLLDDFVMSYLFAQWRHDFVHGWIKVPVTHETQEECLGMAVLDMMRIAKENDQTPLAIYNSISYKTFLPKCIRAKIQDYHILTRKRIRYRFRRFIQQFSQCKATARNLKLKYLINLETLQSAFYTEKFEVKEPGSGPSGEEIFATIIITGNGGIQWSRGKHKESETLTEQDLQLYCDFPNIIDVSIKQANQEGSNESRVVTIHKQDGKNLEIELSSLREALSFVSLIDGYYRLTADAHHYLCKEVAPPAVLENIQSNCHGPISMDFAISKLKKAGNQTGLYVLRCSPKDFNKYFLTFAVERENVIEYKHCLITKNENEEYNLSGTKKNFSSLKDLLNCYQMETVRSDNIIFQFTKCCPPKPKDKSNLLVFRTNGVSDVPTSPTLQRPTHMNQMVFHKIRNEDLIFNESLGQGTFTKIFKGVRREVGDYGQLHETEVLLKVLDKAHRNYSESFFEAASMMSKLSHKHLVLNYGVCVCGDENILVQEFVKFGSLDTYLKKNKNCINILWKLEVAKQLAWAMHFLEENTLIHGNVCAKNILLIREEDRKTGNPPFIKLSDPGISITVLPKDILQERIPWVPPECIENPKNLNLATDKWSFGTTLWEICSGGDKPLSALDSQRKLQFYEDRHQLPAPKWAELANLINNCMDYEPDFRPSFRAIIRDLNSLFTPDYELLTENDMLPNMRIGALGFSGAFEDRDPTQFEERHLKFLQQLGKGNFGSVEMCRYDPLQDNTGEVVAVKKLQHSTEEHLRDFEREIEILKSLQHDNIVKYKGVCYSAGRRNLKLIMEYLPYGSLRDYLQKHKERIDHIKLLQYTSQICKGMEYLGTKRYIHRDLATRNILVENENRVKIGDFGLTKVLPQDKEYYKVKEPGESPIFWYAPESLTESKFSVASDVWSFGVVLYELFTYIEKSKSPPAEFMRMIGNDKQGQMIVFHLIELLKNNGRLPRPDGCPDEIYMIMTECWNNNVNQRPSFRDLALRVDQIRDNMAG
Description: as §1, §2
The assays were as described above in Example 36 except that JAK-2 enzyme was used, the final poly(Glu)4Tyr concentration was 15 μM, and final ATP concentration was 12 μM.

SMILES	Ki (JAK3) [nM]	Ki (JAK2) [nM]
CCOC(=O)c1cc(N[C@@H](C)C(=O)NCC(F)(F)F)nc(-c2c[nH]c3ncncc23)n1 [Compound 2]	500 to 5000	> 5000
C[C@H](Nc1cc(C(=O)O)nc(-c2c[nH]c3ncncc23)n1)C(=O)NCC(F)(F)F [Compound 3, 6-((S)-1-(2,2,2-trifluoroethylcarbamoyl)ethylamino)-2-(7H-pyrrolo[2,3-d]pyrimidin-5-yl)pyrimidine-4-carboxylic acid]	< 500	> 5000
C[C@H](Nc1nc(-c2c[nH]c3ncncc23)ncc1F)C(=O)NCC(F)(F)F [Compound 6, (S)-2-(5-fluoro-2-(7H-pyrrolo[2,3-d]pyrimidin-5-yl)pyrimidin-4-ylamino)-N-(2,2,2-trifluoroethyl)propanamide]	< 500	< 500
CC1CCN(C(=O)c2cc(N[C@@H](C)C(=O)NCC(F)(F)F)nc(-c3c[nH]c4ncncc34)n2)CC1 [Compound 7]	< 500	500 to 5000
C[C@H](Nc1cc(C(=O)N2CCC[C@H]2CO)nc(-c2c[nH]c3ncncc23)n1)C(=O)NCC(F)(F)F [Compound 8]	< 500	500 to 5000
C[C@H](Nc1cc(C(=O)N2CCCC2)nc(-c2c[nH]c3ncncc23)n1)C(=O)NCC(F)(F)F [Compound 9]	< 500	500 to 5000
C[C@H](Nc1cc(OC2CCOC2)nc(-c2c[nH]c3ncncc23)n1)C(=O)NCC(F)(F)F (some centres unmarked) [Compound 10]	500 to 5000	> 5000
COC[C@H]1CCCN1C(=O)c1cc(N[C@@H](C)C(=O)NCC(F)(F)F)nc(-c2c[nH]c3ncncc23)n1 [Compound 11]	500 to 5000	> 5000
C[C@H](Nc1cc(C(=O)N2CCOCC2)nc(-c2c[nH]c3ncncc23)n1)C(=O)NCC(F)(F)F [Compound 12]	< 500	500 to 5000
C[C@H](Nc1cc(C(=O)N2CCC(O)CC2)nc(-c2c[nH]c3ncncc23)n1)C(=O)NCC(F)(F)F [Compound 13]	500 to 5000	500 to 5000
COCCNC(=O)c1cc(N[C@@H](C)C(=O)NCC(F)(F)F)nc(-c2c[nH]c3ncncc23)n1 [Compound 14]	< 500	500 to 5000
C[C@H](Nc1cc(C(=O)N(C)CCO)nc(-c2c[nH]c3ncncc23)n1)C(=O)NCC(F)(F)F [Compound 15]	500 to 5000	500 to 5000
CC(C)[C@H](C)NC(=O)c1cc(N[C@@H](C)C(=O)NCC(F)(F)F)nc(-c2c[nH]c3ncncc23)n1 [Compound 16]	500 to 5000	500 to 5000
C[C@H](Nc1cc(C(=O)N(C)Cc2ccccc2)nc(-c2c[nH]c3ncncc23)n1)C(=O)NCC(F)(F)F [Compound 17]	500 to 5000	500 to 5000
C[C@H](Nc1cc(C#N)cc(-c2c[nH]c3ncncc23)n1)C(=O)NCC(F)(F)F [Compound 19, (S)-2-(4-cyano-6-(7H-pyrrolo[2,3-d]pyrimidin-5-yl)pyridin-2-ylamino)-N-(2,2,2-trifluoroethyl)propanamide]	< 500	500 to 5000
C[C@H](Nc1cc(-c2nnn[nH]2)cc(-c2c[nH]c3ncncc23)n1)C(=O)NCC(F)(F)F [Compound 20, (S)-2-(6-(7H-pyrrolo[2,3-d]pyrimidin-5-yl)-4-(1H-tetrazol-5-yl)pyridin-2-ylamino)-N-(2,2,2-trifluoroethyl)propanamide]	< 500	500 to 5000
O=C(NCC(F)(F)F)[C@@H]1CCCN1c1nc(-c2c[nH]c3ncncc23)ncc1F [Compound 26]	500 to 5000	> 5000

Second part, the compound after the results:

Ki (JAK3) [nM]	Ki (JAK2) [nM]	SMILES
< 500	< 500	CC(=O)N1[C@H](C)CN(c2cccc(-c3c[nH]c4ncncc34)n2)C[C@@H]1C [Compound 1, 1-((2S,6R)-4-(6-(7H-pyrrolo[2,3-d]pyrimidin-5-yl)pyridin-2-yl)-2,6-dimethylpiperazin-1-yl)ethanone]
< 500	< 500	C[C@H](Nc1cccc(-c2c[nH]c3ncncc23)n1)C(=O)NCC(F)(F)F [Compound 4, (S)-2-(6-(7H-pyrrolo[2,3-d]pyrimidin-5-yl)pyridin-2-ylamino)-N-(2,2,2-trifluoroethyl)propanamide]
< 500	< 500	C[C@H](Nc1ccnc(-c2c[nH]c3ncncc23)n1)C(=O)NCC(F)(F)F [Compound 5, (S)-2-(2-(7H-pyrrolo[2,3-d]pyrimidin-5-yl)pyrimidin-4-ylamino)-N-(2,2,2-trifluoroethyl)propanamide]
< 500	500 to 5000	C[C@H](Nc1cc(-c2ccccc2)nc(-c2c[nH]c3ncncc23)n1)C(=O)NCC(F)(F)F [Compound 18, (S)-2-(6-phenyl-2-(7H-pyrrolo[2,3-d]pyrimidin-5-yl)pyrimidin-4-ylamino)-N-(2,2,2-trifluoroethyl)propanamide]
500 to 5000	500 to 5000	OC[C@@H]1CCCN1c1nc(-c2c[nH]c3ncncc23)ncc1F [Compound 21, ((S)-1-(5-fluoro-2-(7H-pyrrolo[2,3-d]pyrimidin-5-yl)pyrimidin-4-yl)pyrrolidin-2-yl)methanol]
500 to 5000	500 to 5000	OC[C@H]1CCCN1c1nc(-c2c[nH]c3ncncc23)ncc1F [Compound 22, ((R)-1-(5-fluoro-2-(7H-pyrrolo[2,3-d]pyrimidin-5-yl)pyrimidin-4-yl)pyrrolidin-2-yl)methanol]
500 to 5000	500 to 5000	COC[C@@H]1CCCN1c1nc(-c2c[nH]c3ncncc23)ncc1F [Compound 23, 5-(5-fluoro-4-((S)-2-(methoxymethyl)pyrrolidin-1-yl)pyrimidin-2-yl)-7H-pyrrolo[2,3-d]pyrimidine]
500 to 5000	500 to 5000	Fc1cnc(-c2c[nH]c3ncncc23)nc1N1CCCC1 [Compound 24, 5-(5-fluoro-4-(pyrrolidin-1-yl)pyrimidin-2-yl)-7H-pyrrolo[2,3-d]pyrimidine]
500 to 5000	500 to 5000	COC[C@H]1CCCN1c1nc(-c2c[nH]c3ncncc23)ncc1F [Compound 25, 5-(5-fluoro-4-((R)-2-(methoxymethyl)pyrrolidin-1-yl)pyrimidin-2-yl)-7H-pyrrolo[2,3-d]pyrimidine]
< 500	< 500	O=C(NCC(F)(F)F)[C@H]1CCCN1c1nc(-c2c[nH]c3ncncc23)ncc1F [Compound 27]
500 to 5000	500 to 5000	CC(C)(C)OC(=O)N1CC=C(c2cccc(-c3c[nH]c4ncncc34)n2)CC1 [Compound 28, 6-(7H-Pyrrolo[2,3-d]pyrimidin-5-yl)-3′,6′-dihydro-2′H-[2,4′]bipyridinyl-1′-carboxylic acid tert-butyl ester]
500 to 5000	500 to 5000	C1=C(c2cccc(-c3c[nH]c4ncncc34)n2)CCNC1 [Compound 29, 6-(7H-Pyrrolo[2,3-d]pyrimidin-5-yl)-1′,2′,3′,6′-tetrahydro-[2,4′]bipyridinyl hydrochloride]
< 500	< 500	N#CCC(=O)N1CC=C(c2cccc(-c3c[nH]c4ncncc34)n2)CC1 [Compound 30, 3-(4-(6-(7H-pyrrolo[2,3-d]pyrimidin-5-yl)pyridin-2-yl)-5,6-dihydropyridin-1(2H)-yl)-3-oxopropanenitrile]
500 to 5000	> 5000	C[C@H](Nc1nc(-c2c[nH]c3ncncc23)cc(N2CCCC2)n1)C(=O)NCC(F)(F)F [Compound 31, (S)-2-(4-(pyrrolidin-1-yl)-6-(7H-pyrrolo[2,3-d]pyrimidin-5-yl)pyrimidin-2-ylamino)-N-(2,2,2-trifluoroethyl)propanamide]
